The text below walks through data of patent US7989518B2, “Synthetic biocompatible material having an improved oxidation resistance, process for preparing the same and prosthetic articles obtained therefrom” (priority 2006, dated 2011).

A short description of data set [1]: Thermal stability of Lipoic Acid inside UHMWPE, by FTIR spectra. The following applies: UHMWPE with 0.5% wt lipoic acid heated at 150° C. for 2 hours or 200° C. for 24 hours. It counts as physicochemical. As to the method:
UHMWPE GUR 1050 (Ticona Inc, Bayport, Tex., USA) in powder form was mixed with 0.5 weight % of Lipoic Acid in powder form (Talamonti, Italy, stock n. 1050919074). The mixture was then moulded in a cell at 160° C. and at a pressure of 200 MPa. The purpose of these examples was to investigate the presence and stability of Lipoic Acid inside UHMWPE with which it was pre-mixed. UHMWPE commonly melts at 138° C., but Lipoic Acid melts at about 65° C. Therefore, to check the Lipoic Acid stability into the UHMWPE at high temperatures a Lipoic Acid-doped UHMWPE was tested at 150° C. and 200° C. […] Line B represents the spectrum of UHMWPE doped with LA, heated at 150° C. for 2 hours, then cooled at room temperature, in which the spectrum of pure UHMWPE was detracted as baseline.

Data set [2] can be described thus: Oxidation stability after gamma irradiation and aging, by FTIR oxidation index. It counts as physicochemical. The following applies: 0.5 weight % in UHMWPE. Here is the method:
UHMWPE GUR 1050 (Ticona Inc, Bayport, Tex., USA) in powder form was mixed with 0.5 weight % of Lipoic Acid in powder form (Talamonti, Italy, stock n. 1050919074). The mixture was then moulded in a cell at 160° C. and at a pressure of 200 MPa.
A comparative sample was made with the same UHMWPE GUR 1050 only, namely without mixing it with lipoic acid.
Each sample of UHMWPE, virgin and doped with lipoic acid, was gamma irradiated to a dose of 30 kGy (Isomedix, Northborough, Mass.), then was processed into cylindrical pins of 20 mm length and 9 mm diameter.
Each sample, virgin and doped, was then aged at 80° C. in a convection oven for 5 weeks, in air (ASTM standard F2003-02). After aging and oxidation, thin sections of […] thickness of each sample were prepared using a Leitz Wetzlar Sledge Microtome (Leica, Nussloch, Germany). The irradiated and aged sections of cylindrical pins samples were then analysed by means of Fourier Transform Infrared Spectroscopy (FTIR). The IR analysis was performed using a Nicolet Magna 860 spectrometer.
The effect of aging on the oxidation of virgin UHMWPE and UHMWPE doped with lipoic acid is shown in FIG. 2 and FIG. 3, respectively. An oxidation index OI was defined as the ratio of the area under 1740 cm^−1 carbonyl and 1370 cm^−1 methylene absorbance peaks.

For data set [3] the following is noted: cited from earlier work.

SMILES strings stand for the structures.

As to `O=C(O)CCCCC1CCSS1` (centres unmarked) [Lipoic Acid, Lipoic acid], the “stability of Lipoic Acid (FTIR spectrum)” value is “substantially unchanged” in data set [1] and “stable” in data set [1] (listed as lipoic acid). In addition, the “antioxidant effectiveness in UHMWPE” value in data set [2] is on record as “effective as antioxidant”. For the same molecule, the “toxicity on human beings” value in data set [3] (100 to 600 mg/day for 3 to 6 months) is “low toxicity”. The side effects entry in data set [3] (dose of 50 mg/day) is “no side effect reported”.
